Where two headings read alike, the source gives them in different places.
Assays:
MDR E. coli ST131 = experiment: Screening of peptidomimetic-antibiotic combinations (growth / growth inhibition); type: cell-based, Escherichia coli; set-up: key to Growth in combination with RIF / Growth in combination with AZM: Growth (+); growth inhibition (–)
K. pneumoniae ST258 [1] = experiment: MIC by broth microdilution; type: cell-based, Klebsiella pneumoniae
Method: (§1) Minimal inhibitory concentrations (MICs) of peptidomimetics, antibiotics and their combinations were determined by broth microdilution according to the Clinical Laboratory Standards Institute performance standards (Clinical and Laboratory Standards Institute, [2013]). […] Since rifampicin and azithromycin mainly are used to treat infections with Gram-positive pathogens only CLSI clinical breakpoints were available for such bacteria. […] Potentiation of additional antibiotics by peptidomimetics was determined by using commercial 96-well plates containing varied concentrations of standard antibiotics (COMPAN1F; Trek Diagnostic Systems Inc.). The peptidomimetics were added immediately prior to inoculation with pathogen, and then MICs were determined as above. The MICs of peptidomimetic/antibiotic combinations were determined according to the method above, and the concentration ratios were selected based upon checkerboard results with 2:1 and 1:4 ratio of peptidomimetic with rifampicin or azithromycin, respectively. Minimal bactericidal concentrations (MBCs) were determined by using growth-curve assay plates. MIC plates were prepared as above, and then the plates were incubated at 37°C with continuous shaking. Growth was recorded at 10 min intervals as optical density (OD) at 600 nm during 24 h. At 24 h, for wells without growth, a sample was diluted 10-fold in sterile saline (0.9% sodium chloride) and plated onto MHA, following CLSI guidelines (Clinical and Laboratory Standards Institute, [1999]).

K. pneumoniae ST258 [2] = test system: K. pneumoniae ST258
Method: (§2) The potential synergistic effects in peptidomimetic-antibiotic combinations were assessed by using a two-dimensional checkerboard assay (Garcia, [2010]). Briefly, twofold dilutions of peptide and antibiotic were prepared in MBH II media along the X- and Y-axis, respectively, in 96-well plates. The inoculum was added to the plates, and subsequently these were incubated for 18–20 h. All steps for inoculum preparation and broth microdilution were in accordance with the CLSI guidelines (Clinical and Laboratory Standards Institute, [2013]). The fractional inhibitory concentration index (FICI) was calculated as [MICA(A+B)/MICA(alone)] + [MICB(A+B)/MICB(alone)], where MICA(A+B) represents the MIC of antibiotic (A) in combination with peptidomimetic (B), while MICB(A+B) represents the MIC of peptidomimetic (B) in combination with antibiotic (A). MICA(alone) and MICB(alone) represent the MIC of each compound individually. FICI values of ≤0.5 were interpreted as synergy.

P. aeruginosa ATCC 27853 [3] = test system: P. aeruginosa ATCC 27853
Method: as §2

E. coli ST131 [4] = test system: E. coli ST131
Method: as §2

P. aeruginosa ATCC 27853 [5] = experiment: MIC by broth microdilution; type: cell-based, Pseudomonas aeruginosa
Method: as §1

K. pneumoniae ST258 [6] = experiment: Screening of peptidomimetic-antibiotic combinations (growth / growth inhibition); type: cell-based, Klebsiella pneumoniae; set-up: key to Growth in combination with RIF / Growth in combination with AZM: Growth (+); growth inhibition (–)
[7] = test system: pro-inflammatory effect of LPS; set-up: method as in Skovbakke et al., 2015; details: at 1 μM; ref Skovbakke et al., 2015; cited from earlier work
[8] = MTS/PMS cell viability assay; type: cell-based, mouse; details: mouse, NIH 3T3 fibroblasts, 1 h exposure, read-out: Cytotoxicity NIH 3T3 EC50 ± SD
Method: (§3) NIH 3T3 and HepG2 cells (both from ATCC, Manassas, VA, USA) were cultured in flat-bottomed 96-well MicroWell™ plates (NUNC, Roskilde, Denmark) at seeding densities of ~23,000 and ~22,000 cells/well, respectively, and then cultured for 22–24 h under standard culturing conditions (37°C, 5% CO2, humidified air) to reach 80–90% confluence. NIH 3T3 were cultured in Dulbecco's modified Eagle's medium (DMEM) supplemented with 10% (v/v) newborn-calf serum (NCS) (Gibco, Paisly, UK), while HepG2 were cultured in Eagle's minimum essential medium (EMEM) supplemented with 10% (v/v) fetal bovine serum (FBS, Gibco, Paisly, UK), sodium pyruvate (1 mM), and non-essential amino acids (1%, v/v). Both culturing media were further supplemented with penicillin (100 U/mL), streptomycin (100 μg/mL), and L-glutamine (2 mM).
(§4) Effect on cell viability was determined in NIH 3T3 fibroblasts and HepG2 hepatocytes by using the MTS/PMS assay measuring metabolic activity. Briefly, the adhered cells were washed with 37°C Hanks' balanced salt solution (HBSS from Sigma-Aldrich, St. Louis, MO, USA), containing 10 mM HEPES (AppliChem, Darmstadt, Germany), and adjusted to pH 7.4, and were then exposed for 1 h to 100 μL of test compound(s) dissolved in the appropriate culturing medium without serum for each cell line. After exposure the cells were washed with HBSS containing 10 mM HEPES (pH 7.4) and 100 μL of an MTS/PMS solution, consisting of 240 μg/mL MTS (Promega, Madison, WI, USA) and 2.4 μg/mL PMS (SigmaAldrich, Buchs, Switzerland) in HBSS, was added to the cells, which then were incubated for 1 h at 37°C with horizontal shaking under light protection. Absorbance was measured at 492 nm by using a POLARstar OPTIMA plate reader (BMG Labtech, Offenburg, Germany). The relative viability was calculated according to Equation (1) with absorbance values obtained after incubation of cells with test compound; incubation with SDS (0.2%, w/v in medium) defined 100% cell death (Abspos), while the absorbance of cells incubated with medium defined 0% cell death (Absneg).
(§5) (1) Relative viability(%)=(Abssample-Abspos)/(Absneg-Abspos)×100%
(§6) EC50 values were calculated by using GraphPad Prism 7 (GraphPad Software, La Jolla, CA, USA) via fitting of the relative cell viability to the concentration of the test compound by using Equation (2):
(§7) (2) Relative viability(%)= Top-Bottom/1+10^(LogIC50-Log[peptidomimetic]) ×Hill slope
(§8) With top and bottom representing the mean highest and lowest observed values, respectively. The Hill slope represents a factor for the steepness of the linear part of the curve. In order to prevent erroneous calculation, the top and bottom values were constrained to 100 and 0%, respectively. Data were collected from technical triplicates. The selectivity index was calculated as the average effect on cell viability (EC50 values for HepG2 and NIH 3T3 cells) divided by the MIC.

[9] = MTS/PMS cell viability assay; type: cell-based; details: human, HepG2 hepatocytes, 1 h exposure, read-out: Cytotoxicity HepG2 EC50 ± SD
Method: as §3, §4, §5, §6, §7, §8

E. coli ST131 [10] = experiment: MIC by broth microdilution; type: cell-based, Escherichia coli
Method: as §1

[11] = peptidomimetic 0.5 μM + azithromycin 1 μg/mL
[12] = peptidomimetic 0.5 μM + rifampicin 0.5 μg/mL
[13] = average of EC50 (HepG2, NIH 3T3) divided by MIC
[14] = MIC of azithromycin combined with the labelled peptidomimetic
[15] = MIC of rifampicin combined with the labelled peptidomimetic

MIC K. pneumoniae ST258 (K. pneumoniae ST258 [1]; peptidomimetic alone): 64 µM
Antibiotic MIC in combination (AZM) (K. pneumoniae ST258 [2]; [14]): 4 µg/mL
Antibiotic MIC in combination (RIF) (K. pneumoniae ST258 [2]; [15]): 1 µg/mL
Peptidomimetic MIC alone (K. pneumoniae ST258 [2]; checkerboard): 64 µM
Antibiotic MIC in combination (AZM) (P. aeruginosa ATCC 27853 [3]; P. aeruginosa ATCC 27853, MIC of azithromycin combined with the labelled peptidomimetic): 1 µg/mL
Antibiotic MIC in combination (RIF) (P. aeruginosa ATCC 27853 [3]; P. aeruginosa ATCC 27853, MIC of rifampicin combined with the labelled peptidomimetic): 1 µg/mL
Peptidomimetic MIC alone (P. aeruginosa ATCC 27853 [3]; P. aeruginosa ATCC 27853, checkerboard): 16 µM
Peptidomimetic MIC in combination (P. aeruginosa ATCC 27853 [3]; P. aeruginosa ATCC 27853, combined with AZM): 4 µM
Peptidomimetic MIC in combination (P. aeruginosa ATCC 27853 [3]; P. aeruginosa ATCC 27853, combined with RIF): 4 µM
Reduction of the MIC of azithromycin (P. aeruginosa ATCC 27853 [3]; P. aeruginosa, sub-MIC concentrations of peptidomimetic): 32- to 512 fold
Antibiotic MIC in combination (AZM) (E. coli ST131 [4]; [14]): 1 µg/mL
Antibiotic MIC in combination (RIF) (E. coli ST131 [4]; [15]): 0.25 µg/mL
Peptidomimetic MIC alone (E. coli ST131 [4]; checkerboard): 4 µM
Peptidomimetic MIC in combination (E. coli ST131 [4]; combined with AZM): 0.25 µM
Peptidomimetic MIC in combination (E. coli ST131 [4]; combined with RIF): 0.25 µM
MIC P. aeruginosa ATCC 27853 (P. aeruginosa ATCC 27853 [5]; peptidomimetic alone): 16 µM
MIC E. coli ST131 (E. coli ST131 [10]; peptidomimetic alone): 4 µM
Structure (SMILES): CC(=O)N[C@@H](CCCCN)C(=O)N(CCC(=O)N[C@@H](CCCCN)C(=O)N(CCC(=O)N[C@@H](CCCCN)C(=O)N(CCC(=O)N[C@@H](CCCCN)C(=O)N(CCC(=O)N[C@@H](CCCCN)C(=O)N(CCC(=O)N[C@@H](CCCCN)C(=O)N(CCC(N)=O)Cc1ccccc1)Cc1ccccc1)Cc1ccccc1)Cc1ccccc1)Cc1ccccc1)Cc1ccccc1 [Peptidomimetic 14, Ac-(Lys-βNPhe)6-NH2]
Growth in combination with AZM (MDR E. coli ST131; [11]): –
Growth in combination with RIF (MDR E. coli ST131; [12]): –
Selectivity Index (SI) K. pneumoniae ST258 (K. pneumoniae ST258 [1]; [13]): (4)
Selectivity Index (SI) P. aeruginosa ATCC 27853 (P. aeruginosa ATCC 27853 [5]; [13]): (17)
Growth in combination with AZM (K. pneumoniae ST258 [6]; [11]): +
Growth in combination with RIF (K. pneumoniae ST258 [6]; [12]): +
Block of the pro-inflammatory effect of LPS [7]: block the pro-inflammatory effect of LPS
EC50 at 1 h [8]: 323 µM
EC50 at 1 h [9]: 234 µM
Selectivity Index (SI) E. coli ST131 (E. coli ST131 [10]; [13]): (70)

From PMC6615261, “Repurposing Azithromycin and Rifampicin Against Gram-Negative Pathogens by Combination With Peptidomimetics” (Frontiers in Cellular and Infection Microbiology, 2019)
